Results published in patent publication US20050014849A1, “Antifungal phenylethylene” (priority 2001, published 2005).
Where two headings read alike, the source gives them in different places.

Experiments:
C. albidus ATCC 40666 = experiment: Broth macrodilution MIC/MFC; assay type: cell-based, Cryptococcus albidus
Description: (§1) TMPN was screened against yeasts by the broth macrodilution assay according to the NCCLS [7]. Yeasts were suspended and diluted as recommended to yield final inocula ranging from 0.5-2.5×10^3 cfu/ml. Tests were performed in sterile 12 by 75 mm plastic tubes containing two-fold dilutions of TMPN in 0.165 M morpholinepropanesulfonic acid buffered RPMI 1640 medium (pH 7.0). One tube was again left drug free (but contained an equivalent volume of DMSO) for a turbidity control. Tubes were incubated without agitation at the appropriate temperature (see Fungal Strains section above). MICs were determined after 72 h for Cryptococcus and after 48 h for other yeast genera. The MIC was defined as the lowest concentration of TMPN that inhibited all visible growth of the test organism (optically clear).
(§2) Minimum fungicidal concentrations (MFCs) were determined by subculturing 0.1 ml from each tube with no visible growth in the MIC broth macrodilution series onto the appropriate drug-free plates (see Fungal Strains section above).

C. neoformans ATCC 14116 = experiment: Broth macrodilution MIC/MFC; assay type: cell-based, Cryptococcus neoformans
Description: as §1, §2

C. neoformans (24) = experiment: Broth macrodilution MIC/MFC; assay type: cell-based, Cryptococcus neoformans
Description: as §1, §2

C. neoformans ATCC 32045 = experiment: Broth macrodilution MIC/MFC; assay type: cell-based, Cryptococcus neoformans
Description: as §1, §2

C. neoformans ATCC 66031 = experiment: Broth macrodilution MIC/MFC; assay type: cell-based, Cryptococcus neoformans
Description: as §1, §2

A. nidulans strain FGSC4 = experiment: Broth macrodilution MIC/MFC, filamentous fungi; assay type: cell-based, Aspergillus nidulans
Description: Susceptibility testing of filamentous fungi was also conducted. Broth macrodilution susceptibility testing of P. lilacinus, Rhizopus spp. and Aspergillus spp. was performed in accordance with a proposed standardized procedure with slight modification. To induce conidium and sporangiospore formation, fungi were grown on PDA slants at 35° C. for 6 days (P. lilacinus, Rhizopus spp., all Aspergillus species except A. nidulans) or 3 days (A. nidulans). Fungal slants were covered with sterile 0.85% NaCl (P. lilacinus, Rhizopus spp., all Aspergillus species except A. nidulans) or 0.05% Tween 80 (A. nidulans), and suspensions were made by gently probing the colonies with the tip of a sterile Pasteur pipette. The resulting mixture of hyphal fragments and conidia or sporangiospores was withdrawn and transferred to a sterile clear microcentrifuge tube, and heavy particles were allowed to settle for 10 min. […] Susceptibility to TMPN was then determined by broth macrodilution as described above for yeast isolates. […]
as §2

[1] = system: Aspergillus fumigatus ATCC 96918; experiment: Broth macrodilution MIC/MFC, filamentous fungi; assay type: cell-based; details: for MFC / MIC: Aspergillus fumigatus
Description: Susceptibility testing of filamentous fungi was also conducted. Broth macrodilution susceptibility testing of P. lilacinus, Rhizopus spp. and Aspergillus spp. was performed in accordance with a proposed standardized procedure with slight modification. To induce conidium and sporangiospore formation, fungi were grown on PDA slants at 35° C. for 6 days (P. lilacinus, Rhizopus spp., all Aspergillus species except A. nidulans) or 3 days (A. nidulans). Fungal slants were covered with sterile 0.85% NaCl (P. lilacinus, Rhizopus spp., all Aspergillus species except A. nidulans) or 0.05% Tween 80 (A. nidulans), and suspensions were made by gently probing the colonies with the tip of a sterile Pasteur pipette. The resulting mixture of hyphal fragments and conidia or sporangiospores was withdrawn and transferred to a sterile clear microcentrifuge tube, and heavy particles were allowed to settle for 10 min. The upper homogenous suspension was transferred to a sterile microcentrifuge tube, vortexed for 15 s, adjusted spectrophotometrically, and diluted in sterile 0.165 M MOPS-buffered RPMI medium, pH 7.0, to yield final inocula ranging from 0.5-2.5×10^3 cfu/ml. Susceptibility to TMPN was then determined by broth macrodilution as described above for yeast isolates. MICs were read after 48 h The MIC was defined as the lowest concentration of TMPN that inhibited all visible growth of the test organism (optically clear).
as §2
(§3) Possible host effects were also evaluated. Broth macrodilution assays were performed with RPMI medium prepared at pH 5, pH 6, and pH 7, and in RPMI medium with and without 50% normal human serum (Lampire Biological Labs). The pH experiments were performed twice on separate days.

C. albicans ATCC 90028 = experiment: Broth macrodilution MIC/MFC; assay type: cell-based, Candida albicans; details: for MFC: Candida albicans ATCC 90028; for MIC: Candida albicans
Description: as §1, §2, §3

bovine brain tubulin = system: T1, bovine brain tubulin; experiment: Colchicine binding assay; details: 10 min at 37° C.
T1 construct: Electrophoretically homogeneous bovine brain tubulin [12]
Description: Electrophoretically homogeneous bovine brain tubulin [12] was used in studies to evaluate the effects of TMPN on in vitro tubulin polymerization and the binding of […] (Dupont-NEN) to tubulin. These studies were performed as described previously. In the polymerization assay, varying drug concentrations were added to 1 mg/ml tubulin to determine the amount of drug that would inhibit the extent of the reaction by 50% (20 min incubation at 30° C.) (IC50 value). In the colchicine binding assay, the effect of varying drug concentrations on the binding of 2 μg/ml colchicine to 100 μg/ml tubulin was measured after 10 min at 37° C. (control reaction about 50% complete).

[2] = system: C. uniguttulatus ATCC 66033; experiment: Broth macrodilution MIC/MFC; assay type: cell-based, Cryptococcus uniguttulatus
Description: as §1, §2

[3] = system: C. uniguttulatus ATCC 34143; experiment: Broth macrodilution MIC/MFC; assay type: cell-based, Cryptococcus uniguttulatus
Description: as §1, §2

[4] = Aspergillus fumigatus ATCC 96918
[5] = ATCC96918, Aspergillus fumigatus ATCC 96918, 50% human serum
[6] = ATCC96918, Aspergillus fumigatus ATCC 96918, no serum
[7] = ATCC96918, pH 5, Aspergillus fumigatus ATCC 96918, pH 5
[8] = ATCC96918, pH 5, Aspergillus fumigatus ATCC 96918, pH 5, repeat experiment
[9] = ATCC96918, pH 6, Aspergillus fumigatus ATCC 96918, pH 6
[10] = ATCC96918, pH 6, Aspergillus fumigatus ATCC 96918, pH 6, repeat experiment
[11] = ATCC96918, pH 7, Aspergillus fumigatus ATCC 96918, pH 7
[12] = ATCC96918, pH 7, Aspergillus fumigatus ATCC 96918, pH 7, repeat experiment

COc1cc(C=C[N+](=O)[O-])cc(OC)c1OC [TMPN, 1-(3′,4′,5′-trimethoxyphenyl)-2-nitro-ethylene]
32 (32) μg/ml: MFC (C. albicans ATCC 90028; 20 μg/ml bovine serum albumin) | MFC (C. albicans ATCC 90028; no bovine serum albumin)
32 µg/mL: MFC Range (C. albidus ATCC 40666) | MFC [1, 7] | MFC [1, 9] | MFC [1, 11] | MFC (C. albicans ATCC 90028; ATCC90028, no serum, read-out: MFC) | MFC (C. albicans ATCC 90028; ATCC90028, pH 5, read-out: MFC) | MFC (C. albicans ATCC 90028; ATCC90028, pH 6, read-out: MFC) | MFC (C. albicans ATCC 90028; ATCC90028, pH 7, read-out: MFC) | MFC Range (C. albicans ATCC 90028; C. albicans ATCC 90028) | MIC Range (C. albicans ATCC 90028; C. albicans ATCC 90028) | MFC (C. albicans ATCC 90028; 40 μg/ml bovine serum albumin) | MIC (C. albicans ATCC 90028; ATCC90028, Candida albicans ATCC 90028, 20 μg/ml bovine serum albumin) | MIC (C. albicans ATCC 90028; ATCC90028, Candida albicans ATCC 90028, no bovine serum albumin) | MIC (C. albicans ATCC 90028; ATCC90028, Candida albicans ATCC 90028, no serum) | MIC (C. albicans ATCC 90028; ATCC90028, pH 5, Candida albicans ATCC 90028, pH 5) | MIC (C. albicans ATCC 90028; ATCC90028, pH 5, Candida albicans ATCC 90028, pH 5, repeat experiment) | MIC (C. albicans ATCC 90028; ATCC90028, pH 6, Candida albicans ATCC 90028, pH 6) | MIC (C. albicans ATCC 90028; ATCC90028, pH 6, Candida albicans ATCC 90028, pH 6, repeat experiment) | MIC (C. albicans ATCC 90028; ATCC90028, pH 7, Candida albicans ATCC 90028, pH 7) | MIC (C. albicans ATCC 90028; ATCC90028, pH 7, Candida albicans ATCC 90028, pH 7, repeat experiment) | MFC Range [2]
8 µg/mL: MIC Range (C. albidus ATCC 40666) | MIC Range (C. neoformans ATCC 14116) | MFC 50% (MFC at which 50% of the strains are killed) (C. neoformans (24); C. neoformans (24)) | MIC90 (C. neoformans (24); Cryptococcus neoformans, C. neoformans (24), read-out: MIC 90% (MIC at which 90% of the strains are inhibited)) | MIC Range (A. nidulans strain FGSC4) | MIC Range [1, 4] | MIC [1, 6] | MIC [1, 8] | MIC [1, 10] | MIC [1, 12] | MIC Range [3]
16 µg/mL: MFC Range (C. neoformans ATCC 14116) | MFC 90% (MFC at which 90% of the strains are killed) (C. neoformans (24); C. neoformans (24)) | MFC Range (A. nidulans strain FGSC4) | MIC [1, 5] | MFC [1, 6] | MIC (C. albicans ATCC 90028; ATCC90028, Candida albicans ATCC 90028, 40 μg/ml bovine serum albumin) | MIC Range [2] | MFC Range [3]
32 (32), 32 (32) μg/ml: MFC (C. albicans ATCC 90028; pH 5, repeat experiment) | MFC (C. albicans ATCC 90028; pH 6, repeat experiment) | MFC (C. albicans ATCC 90028; pH 7, repeat experiment)
2 µg/mL: MIC Range (C. neoformans ATCC 66031)
> 64 µg/mL: MFC [1, 5] | MFC [1, 8] | MFC [1, 10] | MFC [1, 12] | MIC (C. albicans ATCC 90028; ATCC90028, Candida albicans ATCC 90028, 50% human serum)
13±0.5%: inhibition of [^3H]colchicine binding to tubulin (bovine brain tubulin; 5 μM (combretastatin A-4 1.6 μg/ml; TMPN 1.2 μg/ml))
4 to 32 µg/mL: MFC Range (C. neoformans (24); C. neoformans (24))
96%: share of isolates with MFC/MIC ratio <2 (C. neoformans (24); C. neoformans clinical isolates) | share of isolates with MFC/MIC ratio ≦2 (C. neoformans (24); Cryptococcus neoformans clinical isolates)
69±0.5%: inhibition of [^3H]colchicine binding to tubulin (bovine brain tubulin; 12 μg/ml (50 uM))
2 to 16 µg/mL: MIC Range (C. neoformans (24); C. neoformans (24))
4 µg/mL: MIC50 (C. neoformans (24); Cryptococcus neoformans, C. neoformans (24), read-out: MIC 50% (MIC at which 50% of the strains are inhibited)) | MFC Range (C. neoformans ATCC 32045) | MIC Range (C. neoformans ATCC 32045) | MFC Range (C. neoformans ATCC 66031) | MIC [1, 7] | MIC [1, 9] | MIC [1, 11]
>64 µg/mL: MFC Range [1, 4]
